Test results published in patent publication US20030018044A1, “Treatment of ocular disease” (priority 2000, published 2003).

Columns and labels:
human skin mast cells = settings: cited from earlier work
atopic dermatitis = settings: topical, cited from earlier work
[1] = cited from earlier work
eye = experiment: ocular toxicity after direct intraocular injection; type: in vivo, patient
Excerpt: The toxicity of tacrolimus, which had been reported with tacrolimus administered systemically, was thought to limit its intraocular use. The toxicity of tacrolimus administered intraocularly had not been evaluated. Ocular toxicity may manifest as a gross and/or histologic retinal and/orvitreous toxic reaction. Evidence of such a toxic reaction may include one or more of white vitreous bodies, white vitreous opacities, electroretinography abnormalities such as reduction in mean B-wave amplitude in both scotopic and photopic conditions, occlusion of the temporal retinal vessels, and fibrin deposits.
As used herein, a lack of substantial toxicity encompasses both the absence of any manifestations of toxicity, as well as manifestations of toxicity which one skilled in the art would consider not sufficiently detrimental to decrease or cease treatment.
The intravenous solution form of tacrolimus may be diluted to achieve the indicated concentration using 0.9% NaCl or 5% dextrose, or an organic solvent such as dimethylsulfoxide (DMSO) or alcohol, preferably a low molecular weight alcohol. Intraocular administration may be any of the routes and formulations previously described. For injection, either a solution, emulsion, suspension of a liquid, capsular formulation of microspheres or liposomes, etc. may be used.

C=CC[C@@H]1/C=C(\C)C[C@H](C)C[C@H](OC)[C@H]2O[C@@](O)(C(=O)C(=O)N3CCCC[C@H]3C(=O)O[C@H](/C(C)=C/[C@@H]3CC[C@@H](O)[C@H](OC)C3)[C@H](C)[C@@H](O)CC1=O)[C@H](C)C[C@@H]2OC [Tacrolimus]
anti-IgE-triggered histamine release (human skin mast cells): inhibits | prostaglandin D2 synthesis (human skin mast cells): inhibits | adverse effects, treated versus control groups (atopic dermatitis; concentrations up to 0.3%): no significant difference | clinical improvement in atopic dermatitis (atopic dermatitis; doses 0.03%-0.3%, after 2-3 weeks treatment): significant clinical improvement | local tolerability (atopic dermatitis): well tolerated locally and only occasionally causes mild irritation | solubility in chloroform ([1]; chloroform): very soluble | solubility in ethanol ([1]; ethanol): freely soluble | solubility in methanol ([1]; methanol): very soluble | solubility in water ([1]; water): practically insoluble | dose of direct intraocular injection without substantial toxicity (eye): up to 250 μg
